Legend:
blood vessels = assay: short-term and long-term preservation of blood vessels
[1] = tested on: smooth muscular cells and endothelial cells from blood vessels; assay: morphology of blood vessel cells after long storage with or without calcium (FIG. 2)
Source text: The vascular endothelium contains hydrocarbon chains which are bound to proteins in the cell membranes, and these constitute a so-called layer of glycocalyx. This is a thin layer of a mucous substance (composed of sugars) which is considered to enclose the cell membranes and which is important to the properties of immunity of the cell and makes the cell wall permeable. These hydrocarbon chains are bound together by, among other things, calcium. If the vascular endothelial cells are subjected to calcium-free solutions for a long time, a disintegration of the important layer of glycocalyx is assumed to take place, and the function of the endothelium thus cannot be perfect. Evidence of these discoveries has been obtained through electron microscope studies of cell membranes in blood vessels that have been stored in preservation solutions with and without calcium.
The pictures show, on the one hand, smooth muscular cells from blood vessels and, on the other hand, endothelial cells from blood vessels that have been stored for a long time with or without calcium. In the case of preservation without calcium (a: smooth muscular cell and c: endothelial cell), there appears an enormous swelling of the nuclei and the cytoplasm in both types of cells.

Molecule	time for which smooth muscle function in blood vessels is preserved (blood vessels; long-term preservation)	cell morphology after long storage [1]	toxicity to the vascular endothelium / endothelial function (blood vessels)
[Ca+2] [calcium]	up to 36 hours	normal structures of the cells	
heparin [reference compound]			not toxic to the endothelial function

Reference: patent US6794124B2, “Preservation solution” (Stiftelsen Facthor, priority 1995, dated 2004)
